One data set addresses T1, SLC47A1 (Homo sapiens, UniProt Q96FL8).
T1 sequence (Q96FL8 1-570): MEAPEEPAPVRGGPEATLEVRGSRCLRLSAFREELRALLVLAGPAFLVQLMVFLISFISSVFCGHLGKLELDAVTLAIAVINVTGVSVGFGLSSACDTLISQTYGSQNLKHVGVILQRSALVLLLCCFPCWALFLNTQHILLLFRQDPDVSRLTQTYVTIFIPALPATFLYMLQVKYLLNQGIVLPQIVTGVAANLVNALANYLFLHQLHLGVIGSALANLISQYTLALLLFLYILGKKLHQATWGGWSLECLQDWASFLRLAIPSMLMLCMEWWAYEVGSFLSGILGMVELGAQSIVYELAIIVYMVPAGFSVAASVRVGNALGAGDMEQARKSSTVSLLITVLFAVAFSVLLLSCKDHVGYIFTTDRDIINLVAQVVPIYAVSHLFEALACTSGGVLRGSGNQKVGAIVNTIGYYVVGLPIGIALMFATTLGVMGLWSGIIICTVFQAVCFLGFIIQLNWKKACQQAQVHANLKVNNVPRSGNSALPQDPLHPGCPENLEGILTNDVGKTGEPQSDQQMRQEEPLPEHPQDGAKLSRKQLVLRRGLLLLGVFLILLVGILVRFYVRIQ
Kind of data set: Uptake ratio screen, SLC47A1-overexpressing HEK293 over empty vector cells. Particulars: 2.5 μM, 2 min. The class given is cell-based. As for the experimental part: (§1) Typically discussed substrates of the proton organic-cation antiporter ([14]) are highlighted in dark green in Figure 1.
(§2) In preparation for transport experiments, 24-well plates were pre-coated with poly-D-lysine (Sigma-Aldrich) and 300,000 cells were plated per well and incubated for 48 h. Firstly, the 24-well plate was placed on a heating plate at 37 °C, and the cells were washed with 37 °C HBSS^+ buffer (Hank’s balanced salt solution supplemented with 10 mM Hepes and adjusted to pH 7.4; Thermo Fisher Scientific). The substance-of-interest, which was diluted in 37 °C HBSS^+ to a desired concentration, was added to the cells for exactly 2 min. […] The uptake was stopped with ice-cold HBSS^+, and the 24-well plate was removed from the heating plate. The cells were washed twice with the cold HBSS^+ before they were lysed for 15 min with 80% (v/v) acetonitrile containing the respective internal standard for mass spectrometry. For variations in seeded cell numbers between the cell lines, several wells were lysed in RIPA buffer and used for total protein quantification using a bicinchoninic assay ([74]) and bovine serum albumin as calibration.
(§3) The intracellular drug concentrations after transport experiments were analyzed by high-performance liquid chromatography coupled to tandem mass spectrometry analysis. The HPLC consisted of a Shimadzu Nexera HPLC System with a SIL-30AC autosampler, a LC-30AD pump, a CTO-20AC column oven, and a CBM-20A controller (Shimadzu). The reverse-phase chromatography of compounds was accomplished with a Brownlee SPP RP-Amide column with 4.6 × 100 mm inner dimensions, a particle size of 2.7 μm, and a preceding Phenomenex C-18 guard column. […] After separation, the detection of substances was performed with an API 4000 tandem mass spectrometer (AB SCIEX, https://sciex.com/support/software-support/software-downloads), followed by quantification of results with the Analyst software (AB SCIEX, version 1.6.2). […]
(§4) Transport-mediated net uptake was determined as fold-increase of transporter-overexpressing cells over empty vector–transfected control cells.

In a further data set the target is SLC47A2 (Homo sapiens, UniProt Q86VL8). The experiment in a line: Uptake ratio screen, SLC47A2-overexpressing HEK293 over empty vector cells. The class given is cell-based. Particulars: 2.5 μM, 2 min. As for the experimental part:
as §1, §2, §3, §4

The next data set has as its target OCT1 (Homo sapiens, UniProt O15245). Particulars: 2.5 μM, 2 min, HEK293. As to the method:
as §1, §2
(§5) The intracellular drug concentrations after transport experiments were analyzed by high-performance liquid chromatography coupled to tandem mass spectrometry analysis. The HPLC consisted of a Shimadzu Nexera HPLC System with a SIL-30AC autosampler, a LC-30AD pump, a CTO-20AC column oven, and a CBM-20A controller (Shimadzu). The reverse-phase chromatography of compounds was accomplished with a Brownlee SPP RP-Amide column with 4.6 × 100 mm inner dimensions, a particle size of 2.7 μm, and a preceding Phenomenex C-18 guard column. The mobile phase was composed of an organic additive with acetonitrile:methanol 6:1 (v/v) in total concentrations between 3% and 50% (v/v) and 0.1% (v/v) formic acid in the aqueous component of the eluent. During separation, the column oven was held at 40 °C and the mobile phase was maintained at a flow rate of 300 or 400 μl/min. After separation, the detection of substances was performed with an API 4000 tandem mass spectrometer (AB SCIEX, https://sciex.com/support/software-support/software-downloads), followed by quantification of results with the Analyst software (AB SCIEX, version 1.6.2). The composition of chromatographic conditions, as well as detailed mass spectrometric detection parameters, are listed in Table S5.
as §4

In another data set the target is OCT2 (Homo sapiens, UniProt O15244). To be noted: 2.5 μM, 2 min, HEK293. As to the method: as §1, §2, §5, §4
OCT2, sequence (O15244 whole entry): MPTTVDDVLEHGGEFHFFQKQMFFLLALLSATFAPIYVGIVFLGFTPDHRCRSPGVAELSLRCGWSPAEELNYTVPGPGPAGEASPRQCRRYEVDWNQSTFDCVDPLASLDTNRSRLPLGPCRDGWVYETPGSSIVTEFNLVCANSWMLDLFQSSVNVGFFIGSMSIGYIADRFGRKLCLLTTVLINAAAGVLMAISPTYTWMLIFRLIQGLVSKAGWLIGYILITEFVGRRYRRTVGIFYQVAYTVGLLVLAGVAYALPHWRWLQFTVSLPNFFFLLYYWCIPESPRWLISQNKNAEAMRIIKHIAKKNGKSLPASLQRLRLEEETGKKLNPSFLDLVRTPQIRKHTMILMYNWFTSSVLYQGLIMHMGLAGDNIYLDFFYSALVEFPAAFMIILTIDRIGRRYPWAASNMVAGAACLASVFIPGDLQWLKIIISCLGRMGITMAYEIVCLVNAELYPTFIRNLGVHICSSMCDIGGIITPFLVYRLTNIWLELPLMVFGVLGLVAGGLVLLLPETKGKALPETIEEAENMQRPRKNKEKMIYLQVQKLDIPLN
The next data set addresses T2, SLC22A15 (Homo sapiens, UniProt Q8IZD6).
T2 construct: by amplifying the entire gene-of-interest within the HEK293 genome via a long-range PCR
The experiment in a line: Uptake ratio screen, SLC22A15-overexpressing HEK293 over empty vector cells. Type of data set: cell-based. To be noted: 2.5 μM (nicotine 10 μM), 2 min. As to the method: as §1, §2, §5, §4

The next data set has as its target T3, SLC22A18 (Homo sapiens, UniProt Q96BI1).
T3 construct: by amplifying the entire gene-of-interest within the HEK293 genome via a long-range PCR
Kind of data set: Uptake ratio screen, SLC22A18-overexpressing HEK293 over empty vector cells. Type of data set: cell-based. To be noted: 2.5 μM (nicotine 10 μM), 2 min. As for the experimental part:
as §1
In preparation for transport experiments, 24-well plates were pre-coated with poly-D-lysine (Sigma-Aldrich) and 300,000 cells were plated per well and incubated for 48 h. Firstly, the 24-well plate was placed on a heating plate at 37 °C, and the cells were washed with 37 °C HBSS^+ buffer (Hank’s balanced salt solution supplemented with 10 mM Hepes and adjusted to pH 7.4; Thermo Fisher Scientific). The substance-of-interest, which was diluted in 37 °C HBSS^+ to a desired concentration, was added to the cells for exactly 2 min. […] For variations in seeded cell numbers between the cell lines, several wells were lysed in RIPA buffer and used for total protein quantification using a bicinchoninic assay ([74]) and bovine serum albumin as calibration.
The intracellular drug concentrations after transport experiments were analyzed by high-performance liquid chromatography coupled to tandem mass spectrometry analysis. […] After separation, the detection of substances was performed with an API 4000 tandem mass spectrometer (AB SCIEX, https://sciex.com/support/software-support/software-downloads), followed by quantification of results with the Analyst software (AB SCIEX, version 1.6.2). […]

A further data set has as its target SLC38A10 (Homo sapiens, UniProt Q9HBR0).
The subject of a further data set is hCMEC/D3 cell line. The experiment in a line: Antiport (exchange) of diphenhydramine and nalmefene in hCMEC/D3 cells. The class given is cell-based, human. To be noted: hCMEC/D3 preloaded with DPH, within 2 min, unpublished data.
A further data set deals with T4, SLC19A2 (Homo sapiens, UniProt O60779).
T4 construct: expressed in transfected cells
T4 sequence (O60779 1-497): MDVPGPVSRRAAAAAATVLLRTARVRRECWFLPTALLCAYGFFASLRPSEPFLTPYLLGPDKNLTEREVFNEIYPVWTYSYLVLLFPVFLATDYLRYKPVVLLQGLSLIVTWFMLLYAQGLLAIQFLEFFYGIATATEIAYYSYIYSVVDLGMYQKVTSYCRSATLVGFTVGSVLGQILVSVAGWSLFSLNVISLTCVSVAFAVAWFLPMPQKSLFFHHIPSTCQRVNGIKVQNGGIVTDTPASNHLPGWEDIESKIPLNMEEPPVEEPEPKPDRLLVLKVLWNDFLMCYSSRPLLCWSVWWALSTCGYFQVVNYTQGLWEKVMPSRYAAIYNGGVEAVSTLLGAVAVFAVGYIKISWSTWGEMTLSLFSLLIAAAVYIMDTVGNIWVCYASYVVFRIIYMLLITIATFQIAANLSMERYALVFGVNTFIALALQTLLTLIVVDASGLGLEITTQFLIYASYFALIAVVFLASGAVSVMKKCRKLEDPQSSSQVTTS
Kind of data set: Uptake ratio screen, SLC19A2-overexpressing HEK293 over empty vector cells. The class given is cell-based. Particulars: 2.5 μM, 2 min. As for the experimental part: as §1, §2, §3, §4

Another data set has as its target SLC35G3 (Homo sapiens, UniProt Q8N808). The experiment in a line: Uptake ratio screen, SLC35G3-overexpressing HEK293 over empty vector cells. Details: by amplifying the entire gene-of-interest within the HEK293 genome via a long-range PCR. Particulars: 2.5 μM substrate, 2 min, HEK293. Type of data set: cell-based.
In another data set the target is T5, SLC35F4 (Homo sapiens, UniProt A4IF30).
T5 sequence (A4IF30 1-521): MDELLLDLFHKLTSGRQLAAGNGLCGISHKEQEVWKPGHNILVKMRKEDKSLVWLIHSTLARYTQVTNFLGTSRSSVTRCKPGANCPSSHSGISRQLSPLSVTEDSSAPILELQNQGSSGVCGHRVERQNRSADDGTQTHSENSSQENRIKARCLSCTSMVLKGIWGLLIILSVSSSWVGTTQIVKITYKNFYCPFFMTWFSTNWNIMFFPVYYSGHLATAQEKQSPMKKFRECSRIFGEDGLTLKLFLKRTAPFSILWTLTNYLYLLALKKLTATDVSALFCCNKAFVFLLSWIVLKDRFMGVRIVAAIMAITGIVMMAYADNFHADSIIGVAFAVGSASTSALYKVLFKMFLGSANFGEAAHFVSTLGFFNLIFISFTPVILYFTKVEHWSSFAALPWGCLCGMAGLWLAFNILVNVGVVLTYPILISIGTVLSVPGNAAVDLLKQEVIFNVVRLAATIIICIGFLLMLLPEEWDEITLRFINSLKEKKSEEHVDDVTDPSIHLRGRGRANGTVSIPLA
Kind of data set: Uptake ratio screen, SLC35F4-overexpressing HEK293 over empty vector cells. The class given is cell-based. More on the design: by amplifying the entire gene-of-interest within the HEK293 genome via a long-range PCR. Particulars: 2.5 μM, 2 min. As for the experimental part:
as §1, §2, §5, §4

The target in another data set is T6, SLC35F5 (Homo sapiens, UniProt Q8WV83).
T6 sequence (Q8WV83 1-523): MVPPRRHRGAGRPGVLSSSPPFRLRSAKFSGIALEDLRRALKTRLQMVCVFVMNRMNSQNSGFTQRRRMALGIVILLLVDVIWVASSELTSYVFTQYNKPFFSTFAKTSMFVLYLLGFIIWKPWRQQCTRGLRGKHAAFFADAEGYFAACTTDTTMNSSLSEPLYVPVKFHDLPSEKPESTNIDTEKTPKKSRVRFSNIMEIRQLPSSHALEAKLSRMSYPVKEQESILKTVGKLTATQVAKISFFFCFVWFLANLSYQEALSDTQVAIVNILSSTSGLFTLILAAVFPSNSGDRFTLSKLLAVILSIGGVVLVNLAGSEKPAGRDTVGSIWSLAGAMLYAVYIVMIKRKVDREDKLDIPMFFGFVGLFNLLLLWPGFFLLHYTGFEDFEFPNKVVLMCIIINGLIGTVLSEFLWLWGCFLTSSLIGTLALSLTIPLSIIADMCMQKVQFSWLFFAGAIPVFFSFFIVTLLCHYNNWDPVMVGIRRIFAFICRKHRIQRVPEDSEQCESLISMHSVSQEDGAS
The experiment in a line: Uptake ratio screen, SLC35F5-overexpressing HEK293 over empty vector cells. Type of data set: cell-based. Details: by amplifying the entire gene-of-interest within the HEK293 genome via a long-range PCR. To be noted: 2.5 μM, 2 min. As to the method:
as §1, §2, §5, §4

SMILES strings stand for the structures.

SLC38A10, sequence (Q9HBR0 whole entry): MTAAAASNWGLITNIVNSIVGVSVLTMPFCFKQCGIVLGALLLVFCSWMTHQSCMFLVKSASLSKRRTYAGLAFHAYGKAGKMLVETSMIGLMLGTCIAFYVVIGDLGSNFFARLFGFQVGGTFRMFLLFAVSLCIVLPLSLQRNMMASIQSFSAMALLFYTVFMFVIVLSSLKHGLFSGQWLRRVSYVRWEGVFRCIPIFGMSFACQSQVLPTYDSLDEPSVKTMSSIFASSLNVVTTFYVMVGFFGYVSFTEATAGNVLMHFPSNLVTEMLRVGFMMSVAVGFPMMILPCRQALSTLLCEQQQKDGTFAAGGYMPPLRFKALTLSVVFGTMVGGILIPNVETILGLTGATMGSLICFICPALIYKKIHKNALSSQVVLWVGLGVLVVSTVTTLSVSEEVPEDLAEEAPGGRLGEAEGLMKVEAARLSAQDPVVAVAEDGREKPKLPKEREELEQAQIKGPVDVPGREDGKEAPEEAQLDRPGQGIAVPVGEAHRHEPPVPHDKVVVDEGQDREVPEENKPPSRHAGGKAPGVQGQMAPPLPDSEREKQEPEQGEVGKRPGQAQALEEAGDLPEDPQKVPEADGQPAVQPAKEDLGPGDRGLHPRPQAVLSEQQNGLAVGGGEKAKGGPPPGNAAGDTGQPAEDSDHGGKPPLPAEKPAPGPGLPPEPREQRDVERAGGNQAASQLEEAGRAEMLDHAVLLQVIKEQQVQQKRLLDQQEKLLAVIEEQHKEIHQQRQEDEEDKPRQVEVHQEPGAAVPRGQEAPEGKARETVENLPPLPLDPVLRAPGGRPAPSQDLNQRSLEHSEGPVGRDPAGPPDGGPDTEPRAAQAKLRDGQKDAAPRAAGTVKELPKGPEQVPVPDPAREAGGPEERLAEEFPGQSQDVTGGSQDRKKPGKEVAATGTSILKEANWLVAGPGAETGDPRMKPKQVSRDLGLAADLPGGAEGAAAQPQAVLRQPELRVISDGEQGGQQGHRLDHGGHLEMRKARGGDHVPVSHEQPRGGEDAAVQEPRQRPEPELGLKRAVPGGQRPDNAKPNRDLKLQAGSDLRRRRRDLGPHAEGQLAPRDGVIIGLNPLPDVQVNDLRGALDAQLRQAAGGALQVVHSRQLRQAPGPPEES
T3 sequence (Q96BI1 whole entry): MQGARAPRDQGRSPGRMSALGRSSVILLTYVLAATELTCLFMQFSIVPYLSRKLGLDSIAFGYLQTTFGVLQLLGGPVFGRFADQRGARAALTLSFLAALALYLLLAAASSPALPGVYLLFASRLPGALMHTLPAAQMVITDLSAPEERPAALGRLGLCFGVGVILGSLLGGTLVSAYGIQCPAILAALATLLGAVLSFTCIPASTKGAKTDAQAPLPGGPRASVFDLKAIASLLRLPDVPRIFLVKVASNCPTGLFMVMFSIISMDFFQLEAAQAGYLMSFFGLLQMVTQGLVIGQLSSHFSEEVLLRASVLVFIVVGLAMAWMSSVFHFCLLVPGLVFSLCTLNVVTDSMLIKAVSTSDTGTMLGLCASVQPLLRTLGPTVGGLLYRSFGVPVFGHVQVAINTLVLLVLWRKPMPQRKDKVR
SLC35G3, sequence (Q8N808 whole entry): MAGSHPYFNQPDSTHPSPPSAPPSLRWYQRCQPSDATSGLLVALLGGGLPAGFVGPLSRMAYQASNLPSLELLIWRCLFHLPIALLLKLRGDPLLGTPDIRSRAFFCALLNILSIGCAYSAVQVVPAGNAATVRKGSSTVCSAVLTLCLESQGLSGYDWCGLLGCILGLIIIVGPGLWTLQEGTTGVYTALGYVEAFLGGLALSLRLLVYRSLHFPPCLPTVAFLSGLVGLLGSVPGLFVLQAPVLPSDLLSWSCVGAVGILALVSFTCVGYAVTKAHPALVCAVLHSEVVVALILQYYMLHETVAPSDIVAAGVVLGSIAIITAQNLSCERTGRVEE
T2 sequence (Q8IZD6 whole entry): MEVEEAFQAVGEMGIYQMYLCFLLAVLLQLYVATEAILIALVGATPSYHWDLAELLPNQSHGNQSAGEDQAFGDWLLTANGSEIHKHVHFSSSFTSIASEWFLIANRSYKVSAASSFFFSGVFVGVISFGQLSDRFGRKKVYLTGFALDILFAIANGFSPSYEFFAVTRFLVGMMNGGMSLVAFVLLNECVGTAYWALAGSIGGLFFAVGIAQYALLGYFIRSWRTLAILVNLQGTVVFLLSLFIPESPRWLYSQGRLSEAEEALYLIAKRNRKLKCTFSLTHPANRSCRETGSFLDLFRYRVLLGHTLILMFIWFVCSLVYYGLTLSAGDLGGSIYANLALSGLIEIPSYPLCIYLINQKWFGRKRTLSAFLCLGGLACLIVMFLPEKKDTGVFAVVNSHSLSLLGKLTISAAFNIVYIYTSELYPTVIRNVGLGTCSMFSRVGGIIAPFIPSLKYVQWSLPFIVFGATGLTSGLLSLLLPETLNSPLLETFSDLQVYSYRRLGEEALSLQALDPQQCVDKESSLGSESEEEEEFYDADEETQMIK
SLC47A2, sequence (Q86VL8 1-566 isoform Q86VL8-3): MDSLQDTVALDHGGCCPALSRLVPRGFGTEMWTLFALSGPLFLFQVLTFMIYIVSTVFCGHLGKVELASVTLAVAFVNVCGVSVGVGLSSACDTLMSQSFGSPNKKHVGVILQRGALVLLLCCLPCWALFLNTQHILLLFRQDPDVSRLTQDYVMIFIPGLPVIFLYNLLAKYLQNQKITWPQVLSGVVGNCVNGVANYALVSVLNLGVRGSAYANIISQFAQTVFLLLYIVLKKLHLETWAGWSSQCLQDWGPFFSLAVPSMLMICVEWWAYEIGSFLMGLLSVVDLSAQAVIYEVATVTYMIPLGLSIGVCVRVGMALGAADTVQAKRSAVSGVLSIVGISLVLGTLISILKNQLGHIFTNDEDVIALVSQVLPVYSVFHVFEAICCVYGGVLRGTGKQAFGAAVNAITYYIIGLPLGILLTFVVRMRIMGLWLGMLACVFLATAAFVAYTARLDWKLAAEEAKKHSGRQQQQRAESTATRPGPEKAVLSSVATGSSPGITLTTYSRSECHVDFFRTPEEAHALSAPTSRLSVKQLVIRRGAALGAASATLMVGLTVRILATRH
OCT1, sequence (O15245 whole entry): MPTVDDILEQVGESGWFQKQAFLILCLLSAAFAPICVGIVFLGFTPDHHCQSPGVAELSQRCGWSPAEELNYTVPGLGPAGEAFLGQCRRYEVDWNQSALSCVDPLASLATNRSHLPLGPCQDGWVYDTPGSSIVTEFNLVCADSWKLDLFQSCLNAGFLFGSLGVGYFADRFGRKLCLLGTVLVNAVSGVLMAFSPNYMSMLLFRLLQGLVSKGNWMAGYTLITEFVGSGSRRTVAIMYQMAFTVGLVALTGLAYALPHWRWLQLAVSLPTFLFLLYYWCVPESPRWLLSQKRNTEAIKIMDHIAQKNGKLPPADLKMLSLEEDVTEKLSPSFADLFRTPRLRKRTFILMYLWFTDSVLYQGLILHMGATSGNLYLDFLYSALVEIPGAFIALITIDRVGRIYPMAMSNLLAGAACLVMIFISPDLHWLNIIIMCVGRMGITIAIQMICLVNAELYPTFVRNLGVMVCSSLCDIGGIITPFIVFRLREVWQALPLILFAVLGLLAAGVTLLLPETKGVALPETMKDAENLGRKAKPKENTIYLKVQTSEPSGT

Turning to `Nc1nc(=O)n([C@@H]2CS[C@H](CO)O2)cc1F` [emtricitabine], the “Uptake by SLC47A1 (MATE1) (in words)” value at SLC47A1 is on record as “only transported by the MATEs”. Moreover, at SLC47A2, the “Uptake by SLC47A2 (MATE2K) (in words)” value is given as “only transported by the MATEs”. For the same molecule, the “Uptake by OCT1 (in words)” value on OCT1 was “to some extent”. The “Uptake by OCT2 (in words)” value on OCT2 is “to some extent”.
`CN1CCC[C@H]1c1cccnc1` [Nicotine]: on SLC22A15, the “Uptake by SLC22A15 (in words)” value is given as “significantly increased the uptake”. In addition, the “Uptake by SLC22A18 (in words)” value at SLC22A18 is recorded as “newly identified substrates”. Also, the “Vmax (±SEM)” value at SLC38A10 (SLC38A10, HEK293, net uptake over empty vector cells) is listed as 48.4 (±7.26) pmol × mg protein^-1 × min^-1. In addition, the “Clint (±SEM)” value on SLC38A10 (SLC38A10, ratio of Vmax over KM) is on record as 0.78 (±0.57) μl × mg protein^-1 × min^-1.
With `CN(C)CCOC(c1ccccc1)c1ccccc1` [Diphenhydramine], the “Share of substrates exchanged (antiport)” value in the data set on hCMEC/D3 cell line was “approximately 60%”.
As to `COC(=O)C(c1ccccc1)C1CCCCN1` (centres unmarked) [Methylphenidate], at SLC22A18, the “Uptake by SLC22A18 (in words)” value is given as “newly identified substrates”. Further, the “Uptake by SLC19A2 (in words)” value at SLC19A2 is “enhance cell uptake”. Further, the “Uptake data for SLC35G3, mean value (fold-increase over empty vector control)” value on SLC35G3 is 1.31. In addition, the “Uptake by SLC35F4 (in words)” value at SLC35F4 is “enhanced cell uptake”. Moreover, on SLC35F5, the “Uptake by SLC35F5 (in words)” value is “highest uptake rates”.

The values above are taken from paper PMC11406361, “Several orphan solute carriers functionally identified as organic cation transporters: Substrates specificity compared with known cation transporters” (The Journal of Biological Chemistry, 2024).
